Target: T1, AlaRS^R329H (Homo sapiens, UniProt P49588, R329H)
T1 construct: made in house; host or cells: E. coli BL21 (DE3), pET-21a
T1 sequence (P49588 1-968 R329H): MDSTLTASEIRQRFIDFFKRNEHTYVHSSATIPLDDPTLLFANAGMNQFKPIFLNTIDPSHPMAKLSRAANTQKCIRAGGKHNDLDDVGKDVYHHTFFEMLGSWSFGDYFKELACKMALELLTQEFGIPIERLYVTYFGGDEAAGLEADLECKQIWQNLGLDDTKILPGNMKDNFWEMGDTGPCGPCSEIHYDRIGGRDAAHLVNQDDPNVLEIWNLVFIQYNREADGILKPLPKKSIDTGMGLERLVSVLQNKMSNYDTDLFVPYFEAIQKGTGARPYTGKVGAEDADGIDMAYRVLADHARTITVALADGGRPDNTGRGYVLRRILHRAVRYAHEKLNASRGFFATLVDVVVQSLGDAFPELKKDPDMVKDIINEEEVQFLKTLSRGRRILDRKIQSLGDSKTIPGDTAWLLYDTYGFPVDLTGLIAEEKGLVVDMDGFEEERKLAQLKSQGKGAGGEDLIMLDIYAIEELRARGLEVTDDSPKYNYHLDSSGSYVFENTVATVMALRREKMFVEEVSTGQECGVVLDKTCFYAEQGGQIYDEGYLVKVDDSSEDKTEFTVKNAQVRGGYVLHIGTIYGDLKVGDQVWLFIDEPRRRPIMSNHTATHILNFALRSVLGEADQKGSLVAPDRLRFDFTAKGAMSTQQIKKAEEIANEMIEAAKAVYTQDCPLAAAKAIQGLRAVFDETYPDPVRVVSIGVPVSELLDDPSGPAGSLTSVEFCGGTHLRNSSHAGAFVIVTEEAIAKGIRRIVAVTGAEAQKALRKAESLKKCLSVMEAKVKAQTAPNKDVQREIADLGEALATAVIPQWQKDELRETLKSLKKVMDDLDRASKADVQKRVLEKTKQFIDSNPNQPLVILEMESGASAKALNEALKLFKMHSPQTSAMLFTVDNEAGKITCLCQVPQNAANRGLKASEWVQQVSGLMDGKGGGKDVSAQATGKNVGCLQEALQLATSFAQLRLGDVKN
Assay: Thermal shift assay (TSA)
Type: binding
Conditions: positive hit = shift of more than 2.5 °C
Text: In this assay, with increasing temperatures, the protein undergoes thermal unfolding, exposing its hydrophobic core. Subsequently, a fluorescent dye binds to these hydrophobic regions, becoming unquenched. Fluorescence is closely monitored, and the midpoint of the protein unfolding transition is designated as the Tm. Ligand binding frequently influences protein thermal stability during denaturation. Thus, the ligand binding affinity of any potential inhibitor can be gauged by evaluating the shift in the Tm. In this experiment, we screened a library of 2000 small molecules (Table S1) and classified as positive hits those that caused a shift in the Tm of the mutant protein of more than 2.5 °C. From the TSA, we identified four small molecules that met this criterion (Figure 2A, Table 1). Specifically, Atazanavir sulfate caused a shift of 4.0 °C, Tanshinone I a shift of 3.1 °C, Hederacolchiside A1 a shift of 4.3 °C, and Hexylresorcinol a shift of 5.5 °C (Figure 2B). To assess the impact of small molecules on the thermal stability of mutant proteins, thermal shift assays were performed using a […] (Applied Biosystems, Waltham, MA, USA) with the Protein Thermal Shift™ Kit dye (Thermo Fisher Scientific, Waltham, MA, USA). Each well of a 96-well Optical Reaction Plate (Applied Biosystems) contained 14 μL of thermal shift buffer, 2 μL of diluted thermal shift dye (8×), 2 μL of a 1 mM small molecule solution, and 2 μL of 1 mg/mL protein. Plates were incubated at 4 °C for 1 h before being heated from 25 °C to 95 °C at 1 °C/min. The fluorescence signal of SYPRO orange (excitation/emission: 490/530 nm) was recorded at 30 s intervals to monitor protein denaturation. The melting temperature (Tm), defined as the midpoint of the unfolding transition, was determined from the fluorescence–temperature curve. ΔTm was calculated as the difference in Tm between AlaRS^R329H treated with compounds and the control. Experiments were conducted in triplicate for accuracy. The experiment was repeated three times.

Cc1coc2c1C(=O)C(=O)c1c-2ccc2c(C)cccc12 [Tanshinone I]
ΔTm (shift between the Tm values of AlaRS^R329H with and without compounds): 3.1 °C

Reference: PMC11509018, “Evaluation of the Role of Tanshinone I in an In Vitro System of Charcot-Marie-Tooth Disease Type 2N” (International Journal of Molecular Sciences, 2024)
